Measured values from PMC10810742 (The Journal of Biological Chemistry, 2023).

Biological target: T1, CteC36–276 (Chromobacterium violaceum, UniProt Q7NY09)
T1 construct: gene cteC; residues 36-276 (disordered N-terminal 1-35 removed); SeMet form for the crystal
Experiment: isothermal titration calorimetry
Type: binding

T1 sequence (Q7NY09 36-276): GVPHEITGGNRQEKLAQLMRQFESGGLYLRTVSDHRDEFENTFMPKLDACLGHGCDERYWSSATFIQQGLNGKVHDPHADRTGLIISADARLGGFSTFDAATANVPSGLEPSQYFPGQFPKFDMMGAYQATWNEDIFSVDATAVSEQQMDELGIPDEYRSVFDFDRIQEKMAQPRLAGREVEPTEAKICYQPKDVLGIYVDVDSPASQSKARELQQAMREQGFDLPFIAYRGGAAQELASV

NC(=O)c1ccc[n+]([C@@H]2O[C@H](COP(=O)(O)OP(=O)(O)OC[C@H]3O[C@@H](n4cnc5c(N)ncnc54)[C@H](O)[C@@H]3O)[C@@H](O)[C@H]2O)c1 [NAD^+]
Kd: 123 µM
